One assay relates to TK-10. In words: NCI human tumor cell panel. As to conditions: TK-10, read-out: Log10 LC50 (converted).
The test system of another assay is HT29. Put plainly: NCI human tumor cell panel. As to conditions: HT-29, read-out: Log10 LC50 (converted).
A further assay concerns COLO 205. In words: NCI human tumor cell panel. As to conditions: for CC50: COLO 205, read-out: Log10 LC50 (converted).
Another assay concerns SNB-19. In words: NCI human tumor cell panel. The note with it: SNB-19, read-out: Log10 LC50 (converted).
Another assay deals with MALME-3M. In words: NCI human tumor cell panel. The note with it: for CC50: read-out: Log10 LC50 (converted).
The test system of another assay is SF-295. Put plainly: NCI human tumor cell panel. As to conditions: SF-295, read-out: Log10 LC50 (converted).
In a further assay the test system is NCI-H226. Put plainly: NCI human tumor cell panel. As to conditions: NCI-H226, read-out: Log10 LC50 (converted).
Another assay concerns HL-60(TB). In words: NCI human tumor cell panel. As to conditions: for CC50: HL-60, read-out: Log10 LC50 (converted); for IC (TGI): HL-60, read-out: Log10 TGI.
The test system of the next assay is UO-31. In words: NCI human tumor cell panel. The note with it: UO-31, read-out: Log10 LC50 (converted).
The next assay relates to NCI-H23. Put plainly: NCI human tumor cell panel. The note with it: NCI-H23, read-out: Log10 LC50 (converted).
A further assay has as its system SK-OV-3. In words: NCI human tumor cell panel. The note with it: SK-OV-3, read-out: Log10 LC50 (converted).
Another assay has as its system UACC-257. In words: NCI human tumor cell panel. The assay is classed as cell-based. The note with it: UACC-257, read-out: Log10 LC50 (converted).
Another assay concerns CAKI-1. In words: NCI human tumor cell panel. The assay is classed as cell-based. As to conditions: CAKI-1, read-out: Log10 LC50 (converted).
The subject of the next assay is RXF-393. In words: NCI human tumor cell panel. It is filed as cell-based. As to conditions: RXF 393, read-out: Log10 LC50 (converted).
The test system of the next assay is SF-268. Put plainly: NCI human tumor cell panel. The note with it: SF-268, read-out: Log10 LC50 (converted). The assay is classed as cell-based.
The test system of a further assay is MDA-MB-231/ATCC. Put plainly: NCI human tumor cell panel. The assay is classed as cell-based.
For a further assay, the system named is T-47D. In words: NCI human tumor cell panel. It is filed as cell-based. As to conditions: T47D, read-out: Log10 LC50 (converted).
For assay [1], the system named is human tumor cell line panels. Put plainly: NCI human tumor cell panel, whole-panel summary (mean graph) and lines without a row head. The note with it: for Log10 LC50, Delta / Log10 TGI, Delta / Log10 TGI, Range: whole panel.
[2] abbreviates: MDA-MB-231, read-out: Log10 LC50, MDA-MB-231/ATCC (converted).

Read-outs that look alike come from different tables or passages of the source.

Consider `OCc1ccc(-c2ccc(-c3ccc[se]3)s2)[se]1`, for which the CC50 is 72.4 µM in the assay with TK-10; > 100 µM in the assay with HT29; 66.1 µM with COLO 205; > 100 µM with SNB-19; > 100 µM with MALME-3M; > 100 µM with SF-295. For the same molecule, the CC50 in the assay on NCI-H226 is 0.525 µM; in the assay with HL-60(TB), > 100 µM; in the assay on UO-31 it was > 100 µM; in the assay with NCI-H23, 91.2 µM; in the assay on SK-OV-3 it was > 100 µM; in the assay with UACC-257, 0.457 µM. Besides, the CC50 in the assay with RXF-393 was > 100 µM; with MDA-MB-231/ATCC (MDA-MB-231, read-out: Log10 LC50, Breast Cancer (converted), MDA-MB-231/ATCC), > 100 µM; in the assay with T-47D, > 100 µM. For the same molecule, the IC (TGI) in the assay on COLO 205 (COLO 205, read-out: Log10 TGI) was 12.6 µM; with MALME-3M (read-out: Log10 TGI) it was > 100 µM. The LC50 in the assay on CAKI-1 is 64.6 µM. The LC50 (concentration killing 50% of cells) in the assay on SF-268 is > 100 µM.

Consider `O=Cc1ccc(-c2ccc(-c3ccc(C=O)[se]3)s2)[se]1`, for which the CC50 in the assay on TK-10, with HT29, in the assay on COLO 205, in the assay with SNB-19, in the assay on MALME-3M and with SF-295 was > 100 µM throughout. Besides, the CC50 is 2.45 µM in the assay with NCI-H226; > 100 µM in the assay on HL-60(TB); > 100 µM in the assay with UO-31; > 100 µM with NCI-H23; > 100 µM with SK-OV-3; 6.92 µM in the assay on UACC-257. For the same molecule, the CC50 in the assay with RXF-393, with MDA-MB-231/ATCC (setting [2]) and with T-47D was > 100 µM each time. Also, the “Log10 LC50, Delta” value in assay [1] is -4.07. Moreover, in assay [1], the “Log10 TGI, Delta” value is -4.17. For the same molecule, the “Log10 TGI, Range” value in assay [1] amounted to 2.18. Also, the IC (TGI) in the assay with HL-60(TB) was > 100 µM. The LC50 in the assay with CAKI-1 was > 100 µM. Also, the LC50 (concentration killing 50% of cells) in the assay on SF-268 is > 100 µM.

For the molecule `O=Cc1ccc(-c2ccc(-c3ccc(C=O)s3)[se]2)s1`, the CC50 in the assay with TK-10, with HT29, in the assay with COLO 205, with SNB-19, in the assay on MALME-3M and in the assay with SF-295 was > 100 µM in each case. For the same molecule, the CC50 in the assay with NCI-H226 is 8.51 µM; in the assay on HL-60(TB), > 100 µM; in the assay with NCI-H23, > 100 µM; with SK-OV-3, > 100 µM; in the assay with UACC-257, 5.75 µM; in the assay on RXF-393, > 100 µM. Besides, the CC50 in the assay with MDA-MB-231/ATCC (setting [2]) and in the assay with T-47D was > 100 µM in each case. The “Log10 LC50, Delta” value in [1] is listed as -4.07. For the same molecule, the “Log10 TGI, Delta” value in [1] is listed as -4.21. Further, in [1] (Homo sapiens, read-out: Log10 GI50, Delta, Delta, whole panel (converted)), the GI50 was 17.8 µM. Further, the “Log10 TGI, Range” value in assay [1] is recorded as 1.61. Further, the IC (TGI) in the assay with HL-60(TB) is > 100 µM. Further, the LC50 in the assay with CAKI-1 is > 100 µM. Moreover, the LC50 (concentration killing 50% of cells) with SF-268 was > 100 µM.

As a reminder, the LC50 is the concentration that kills 50% of the test population.

Values taken from patent EP1021178B1, “SELENOPHENE ANTI-TUMOR AGENTS” (Purdue Research Foundation, priority 1996, dated 1997).
